How the values were obtained:
Assay in all cases: Kinase inhibition, mobility shift assay
Format in all cases: biochemical
EGFR = target: T1, EGFR (Homo sapiens, UniProt P00533); conditions: for Single-concentration inhibitory activity against EGFR, Mean (100% inhibition): compound concentration 80 nM; for IC50: wild-type EGFR, read-out: Inhibitory activity (IC50) on EGFR
T1 construct: purchased Carna 14-531
Protocol: (§1) According to relevant literature, the inhibitory activity of five kinases (EGFR, EGFR-LT, EGFR-LTC, BTK, JAK3) were tested. Note: EGFR, EGFR-LT, EGFR-LTC: wild-type EGFR, L858R/T790M (EGFR-LT), or L858R/T790M/C797S (EGFR-LTC) mutant protein.
(§2) 95 μl of 100% DMSO was added to the first well of a 96-well plate, and then 5 μl of 10 mM compound solution was added to prepare a 500 μM compound solution.
(§3) 10 μl solution was taken out from the 50-fold concentration of compound solution (prepared and tested), and transferred to a 96-well plate, to which was added 90 μl kinase buffer to prepare a 5-fold concentration of compound solution.
(§4) 5 μl solution was taken out from the 5-fold concentration of compound solution in a 96-well plate, and transferred to a 384-well reaction plate. For example, the solution was transferred from well A1 of a 96-well plate to wells A1 and A2 of a 384-well plate, from well A2 of a 96-well plate to wells A3 and A4 of a 384-well plate, and so on.
(§5) 1) The kinase was added to 1× kinase buffer to form 2.5× kinase solution;
(§6) 2) 10 μl of the above 2.5× kinase solution was transferred to a 384-well reaction plate, and 1× kinase buffer was added to the negative control well, then incubated for 10 min at room temperature;
(§7) 3) FAM-labeled polypeptide and ATP were added to 1× kinase buffer to form a 2.5×substrate solution;
(§8) 5) The 384-well reaction plate was incubated at 28° C. for 60 min, to which was added 30 μl of stop solution to stop the reaction, and the model of biochemical incubator was SPX-100B-Z.
(§9) The conversion rate was read on CaliperEZ Reader.
(§10) 1) The conversion rate data were copied from CaliperEZ Reader II;
(§11) 2) The conversion rate was converted into the inhibition rate;
(§12) Percent inhibition=(max−conversion)/(max−min)*100
(§13) “min” is the reading of the control well without enzyme; “max” is the reading of DMSO control well.
(§14) 3) IC50 values were fitted by using XLFit excel add-in version 5.4.0.8.
(§15) Fitting formula: Y=Bottom+(Top−Bottom)/(1+(IC50/X)^HillSlope)

EGFR (T790M L858R) = target: T2, EGFR (T790M L858R) (Homo sapiens, UniProt P00533, L858R/T790M); conditions: for IC50: EGFR L858R/T790M double mutation, read-out: Inhibitory activity (IC50) on EGFR (T790M L858R); for Single-concentration inhibitory activity against EGFR T790M L858R, Mean (100% inhibition): compound concentration 2 nM; for inhibitory activity against EGFR L858R/T790M higher than against wild-type EGFR: ratio of IC50 values wild-type EGFR / EGFR L858R/T790M
T2 construct: purchased Invitrogen PR8911A
Protocol: as §1, §2, §3, §4, §5, §6, §7, §8, §9, §10, §11, §12, §13, §14, §15

JAK3 = target: T3, JAK3 (Homo sapiens, UniProt P52333); conditions: for Single-concentration inhibitory activity on JAK3, Mean (100% inhibition): compound concentration 1 nM; for IC50: read-out: Inhibitory activity (IC50) on JAK3
T3 construct: purchased Carna 08-046
T3 sequence (P52333 1-1124): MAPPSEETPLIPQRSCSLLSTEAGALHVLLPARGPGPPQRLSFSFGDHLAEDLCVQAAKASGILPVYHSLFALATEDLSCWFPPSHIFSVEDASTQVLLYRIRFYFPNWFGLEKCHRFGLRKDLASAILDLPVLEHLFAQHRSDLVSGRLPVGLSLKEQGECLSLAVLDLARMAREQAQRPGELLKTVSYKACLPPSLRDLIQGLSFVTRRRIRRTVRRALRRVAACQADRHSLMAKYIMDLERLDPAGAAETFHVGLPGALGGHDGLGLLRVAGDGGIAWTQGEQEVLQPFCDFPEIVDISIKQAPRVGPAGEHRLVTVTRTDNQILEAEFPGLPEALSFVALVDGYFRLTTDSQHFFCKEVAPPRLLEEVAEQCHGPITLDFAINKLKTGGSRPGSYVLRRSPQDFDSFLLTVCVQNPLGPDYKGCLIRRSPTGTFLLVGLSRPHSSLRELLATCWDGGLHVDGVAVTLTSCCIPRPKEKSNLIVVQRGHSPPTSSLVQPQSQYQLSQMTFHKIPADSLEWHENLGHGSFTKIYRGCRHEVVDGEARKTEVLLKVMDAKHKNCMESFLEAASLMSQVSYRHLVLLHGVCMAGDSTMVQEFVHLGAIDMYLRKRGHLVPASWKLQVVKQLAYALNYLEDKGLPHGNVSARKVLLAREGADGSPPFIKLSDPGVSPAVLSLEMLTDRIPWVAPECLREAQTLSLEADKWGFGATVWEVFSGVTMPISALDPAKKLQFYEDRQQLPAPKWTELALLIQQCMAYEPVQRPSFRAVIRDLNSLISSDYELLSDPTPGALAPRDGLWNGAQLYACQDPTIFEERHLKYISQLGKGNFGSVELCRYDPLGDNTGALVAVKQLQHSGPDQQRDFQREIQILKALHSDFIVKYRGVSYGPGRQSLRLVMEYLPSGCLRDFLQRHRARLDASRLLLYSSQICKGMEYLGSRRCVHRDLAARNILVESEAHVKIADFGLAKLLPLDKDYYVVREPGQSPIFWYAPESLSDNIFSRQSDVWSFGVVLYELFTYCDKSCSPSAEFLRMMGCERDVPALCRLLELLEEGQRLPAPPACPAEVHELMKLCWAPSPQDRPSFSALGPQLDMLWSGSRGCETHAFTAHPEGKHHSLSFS
Protocol: as §1, §2, §3, §4, §5, §6, §7, §8, §9, §10, §11, §12, §13, §14, §15

BTK = target: T4, BTK (Homo sapiens, UniProt Q06187); conditions: for Single-concentration inhibitory activity on BTK, Mean (100% inhibition): compound concentration 4 nM; for IC50: read-out: Inhibitory activity (IC50) on BTK
T4 construct: purchased Carna 08-180
Protocol: as §1, §2, §3, §4, §5, §6, §7, §8, §9, §10, §11, §12, §13, §14, §15

T2 sequence (P00533 25-1210 T790M/L858R): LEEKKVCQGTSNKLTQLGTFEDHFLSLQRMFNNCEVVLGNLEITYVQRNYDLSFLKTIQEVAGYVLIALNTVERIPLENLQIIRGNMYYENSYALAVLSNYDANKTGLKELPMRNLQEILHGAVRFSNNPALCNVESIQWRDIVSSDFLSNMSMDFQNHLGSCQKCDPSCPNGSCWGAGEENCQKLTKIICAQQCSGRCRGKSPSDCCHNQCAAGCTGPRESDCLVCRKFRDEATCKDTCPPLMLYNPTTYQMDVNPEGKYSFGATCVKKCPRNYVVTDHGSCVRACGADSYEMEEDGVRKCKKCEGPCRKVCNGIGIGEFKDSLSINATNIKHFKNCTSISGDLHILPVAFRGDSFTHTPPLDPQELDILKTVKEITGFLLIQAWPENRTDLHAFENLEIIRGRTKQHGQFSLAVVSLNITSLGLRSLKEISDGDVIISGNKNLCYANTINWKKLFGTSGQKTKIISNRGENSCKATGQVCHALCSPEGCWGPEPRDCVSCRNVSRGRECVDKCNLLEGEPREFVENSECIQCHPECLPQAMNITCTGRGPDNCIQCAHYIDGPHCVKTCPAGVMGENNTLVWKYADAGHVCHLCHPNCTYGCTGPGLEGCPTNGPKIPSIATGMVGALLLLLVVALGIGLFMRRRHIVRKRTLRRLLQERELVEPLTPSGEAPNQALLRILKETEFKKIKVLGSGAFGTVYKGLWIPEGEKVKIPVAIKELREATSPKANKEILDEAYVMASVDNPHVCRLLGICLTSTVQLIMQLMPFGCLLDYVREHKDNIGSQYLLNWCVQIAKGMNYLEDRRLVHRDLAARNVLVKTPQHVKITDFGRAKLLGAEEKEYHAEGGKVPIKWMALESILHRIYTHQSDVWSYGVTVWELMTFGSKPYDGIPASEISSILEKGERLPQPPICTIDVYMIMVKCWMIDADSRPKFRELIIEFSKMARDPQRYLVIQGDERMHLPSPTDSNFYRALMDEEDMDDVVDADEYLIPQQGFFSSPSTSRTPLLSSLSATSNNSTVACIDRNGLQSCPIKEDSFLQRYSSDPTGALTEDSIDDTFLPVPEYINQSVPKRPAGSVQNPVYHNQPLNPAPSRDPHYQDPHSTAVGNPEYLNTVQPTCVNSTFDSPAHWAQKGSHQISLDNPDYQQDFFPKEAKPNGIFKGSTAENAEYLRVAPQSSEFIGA
T4 sequence (Q06187 whole entry): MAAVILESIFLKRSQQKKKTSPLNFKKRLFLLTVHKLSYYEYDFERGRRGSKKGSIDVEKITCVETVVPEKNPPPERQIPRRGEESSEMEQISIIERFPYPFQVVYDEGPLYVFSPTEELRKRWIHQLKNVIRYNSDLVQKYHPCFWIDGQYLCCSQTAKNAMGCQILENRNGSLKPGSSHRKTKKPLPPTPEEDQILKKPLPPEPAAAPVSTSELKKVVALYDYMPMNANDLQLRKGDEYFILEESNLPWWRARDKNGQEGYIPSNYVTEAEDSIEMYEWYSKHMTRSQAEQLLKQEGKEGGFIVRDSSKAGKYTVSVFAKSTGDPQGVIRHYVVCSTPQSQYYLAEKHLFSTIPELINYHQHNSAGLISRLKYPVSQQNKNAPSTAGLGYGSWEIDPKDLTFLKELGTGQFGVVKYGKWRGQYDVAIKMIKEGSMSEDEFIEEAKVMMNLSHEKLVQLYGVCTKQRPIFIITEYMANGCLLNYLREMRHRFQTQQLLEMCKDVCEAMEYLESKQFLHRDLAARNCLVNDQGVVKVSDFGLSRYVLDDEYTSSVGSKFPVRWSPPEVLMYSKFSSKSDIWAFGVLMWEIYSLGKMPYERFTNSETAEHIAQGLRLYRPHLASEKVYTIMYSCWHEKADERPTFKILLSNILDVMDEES
T1 sequence (P00533 25-1210): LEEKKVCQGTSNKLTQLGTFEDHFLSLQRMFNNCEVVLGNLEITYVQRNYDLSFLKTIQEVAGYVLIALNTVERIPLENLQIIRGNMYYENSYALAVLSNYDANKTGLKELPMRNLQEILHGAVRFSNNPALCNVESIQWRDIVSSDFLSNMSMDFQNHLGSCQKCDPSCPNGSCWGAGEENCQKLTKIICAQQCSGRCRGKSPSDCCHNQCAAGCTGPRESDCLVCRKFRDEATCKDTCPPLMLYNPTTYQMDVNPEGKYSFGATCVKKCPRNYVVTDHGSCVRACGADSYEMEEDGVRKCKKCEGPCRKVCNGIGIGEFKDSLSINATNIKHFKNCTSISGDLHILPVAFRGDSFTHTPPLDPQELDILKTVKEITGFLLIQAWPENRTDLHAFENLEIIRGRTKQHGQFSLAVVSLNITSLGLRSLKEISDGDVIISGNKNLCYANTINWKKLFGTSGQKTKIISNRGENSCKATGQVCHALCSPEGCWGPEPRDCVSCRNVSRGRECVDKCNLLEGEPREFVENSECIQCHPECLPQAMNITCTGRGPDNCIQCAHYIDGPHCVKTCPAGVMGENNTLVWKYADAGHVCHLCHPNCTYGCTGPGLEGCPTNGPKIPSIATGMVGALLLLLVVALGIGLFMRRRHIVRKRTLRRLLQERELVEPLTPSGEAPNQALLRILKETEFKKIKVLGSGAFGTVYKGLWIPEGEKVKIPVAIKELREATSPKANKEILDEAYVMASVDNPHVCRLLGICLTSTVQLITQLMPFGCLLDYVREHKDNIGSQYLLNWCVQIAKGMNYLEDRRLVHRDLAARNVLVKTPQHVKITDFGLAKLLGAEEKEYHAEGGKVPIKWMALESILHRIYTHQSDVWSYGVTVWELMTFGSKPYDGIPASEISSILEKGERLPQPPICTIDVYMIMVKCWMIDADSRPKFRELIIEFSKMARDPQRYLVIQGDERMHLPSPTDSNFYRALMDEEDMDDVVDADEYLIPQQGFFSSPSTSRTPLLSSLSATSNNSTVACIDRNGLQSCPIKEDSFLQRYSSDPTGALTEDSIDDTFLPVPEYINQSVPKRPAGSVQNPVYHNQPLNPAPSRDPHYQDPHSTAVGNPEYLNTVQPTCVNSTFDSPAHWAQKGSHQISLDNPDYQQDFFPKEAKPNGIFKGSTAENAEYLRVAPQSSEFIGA

Row | Structure (SMILES) | Single-concentration inhibitory activity against EGFR, Mean (100% inhibition) (EGFR) | IC50 (EGFR) | IC50 (EGFR (T790M L858R)) | Single-concentration inhibitory activity against EGFR T790M L858R, Mean (100% inhibition) (EGFR (T790M L858R)) | inhibitory activity against EGFR L858R/T790M higher than against wild-type EGFR (EGFR (T790M L858R)) | Single-concentration inhibitory activity on JAK3, Mean (100% inhibition) (JAK3) | IC50 (JAK3) | Single-concentration inhibitory activity on BTK, Mean (100% inhibition) (BTK) | IC50 (BTK)
1 | C=CC(=O)Nc1cccc(Oc2nc(Nc3ccc(N4CCN(C)CC4)c(OC)c3)nc3[nH]ccc23)c1 [Compound 4] | 32 % inhibition | 217 nM | 3.1 nM | 42 % inhibition | 70 fold | 26 % inhibition | 2.3 nM | 15 % inhibition | 31 nM
2 | C=CC(=O)Nc1cccc(Oc2nc(Nc3ccc(N4CCN(C)CC4)c([N+](=O)[O-])c3)nc3[nH]ccc23)c1 [Compound 5] | 37 % inhibition | 145 nM | 2.7 nM | 49 % inhibition | 54 fold | 23 % inhibition | 2.2 nM | 3.8 % inhibition | 43 nM
3 | C=CC(=O)Nc1cccc(Oc2nc(Nc3ccc(N4CCN(C)CC4)c(Cl)c3)nc3[nH]ccc23)c1 [Compound 2] | 86 % inhibition | – | – | 92 % inhibition | – | 77 % inhibition | – | 37 % inhibition | –

Results, then the molecule that gave them:

Row | Single-concentration inhibitory activity against EGFR, Mean (100% inhibition) (EGFR) | IC50 (EGFR) | IC50 (EGFR (T790M L858R)) | Single-concentration inhibitory activity against EGFR T790M L858R, Mean (100% inhibition) (EGFR (T790M L858R)) | inhibitory activity against EGFR L858R/T790M higher than against wild-type EGFR (EGFR (T790M L858R)) | Single-concentration inhibitory activity on JAK3, Mean (100% inhibition) (JAK3) | IC50 (JAK3) | Single-concentration inhibitory activity on BTK, Mean (100% inhibition) (BTK) | IC50 (BTK) | Structure (SMILES)
4 | 4.7 % inhibition | – | – | 3.5 % inhibition | – | −1.4 % inhibition | – | 5.9 % inhibition | – | C=CC(=O)Nc1cccc(Oc2nc(Nc3ccc(N4CCN(C)CC4)c([N+](=O)[O-])c3)nc3c2ccn3COC(=O)C(C)(C)C)c1 [Compound 7]
5 | 4.5 % inhibition | – | – | 2.4 % inhibition | – | −7.6 % inhibition | – | −2.9 % inhibition | – | C=CC(=O)Nc1cccc(Oc2nc(Nc3ccc(N4CCN(C)CC4)c(N)c3)nc3c2ccn3COC(=O)C(C)(C)C)c1 [Compound 8]
6 | 63 % inhibition | 64 nM | 3.4 nM | 36 % inhibition | 18 fold | 29 % inhibition | 2.2 nM | 27 % inhibition | 11 nM | C=CC(=O)Nc1cccc(Oc2nc(Nc3ccc(N4CCN(C)CC4)c(N)c3)nc3[nH]ccc23)c1 [Compound 6]
7 | 3.6 % inhibition | – | – | 0.1 % inhibition | – | −4.0 % inhibition | – | 3.3 % inhibition | – | C=CC(=O)Nc1cccc(Oc2nc(Nc3ccc(N4CCN(C)CC4)c(I)c3)nc3c2ccn3COC(=O)C(C)(C)C)c1 [Compound 9]

Source: patent US20230075765A1, “PYRROLO[2,3-D]PYRIMIDINE DERIVATIVE TARGETING EGFR MUTATION, AS WELL AS THE PREPARATIVE METHOD AND THE USE THEREOF” (WEST CHINA HOSPITAL, SICHUAN UNIVERSITY, priority 2020, published 2023)
